{"source": "patent EP3461480A1", "about": "“COMBINATION OF A DNA DAMAGE RESPONSE CELL CYCLE CHECKPOINT INHIBITORS AND BELINOSTAT FOR TREATING CANCER” (ONXEO, priority 2017, dated 2019)", "type_in_all_cases": "cell-based", "key": {"[1]": {"system": "histiocytic lymphoma cell line U937", "experiment": "XTT cell survival assay and CalcuSyn combination index, U937", "settings": "Homo sapiens, U-937, monotherapy, XTT assay, dose at which 50% of the cells are viable", "method": "(§1) Cell cultures were performed with the triple negative breast cancer (TBNC) cell line MDA-MB-231, the histiocytic lymphoma cell line U937 and the non-tumor mammary cell line MCF-10A. Cells were grown according to the supplier's instructions. Cell lines were maintained at 37°C in a humidified atmosphere at 5% CO2, except the MDA-MB-231 cell line which was maintained at 0% CO2.\nIn a first step, the characterization of the effect of drugs monotherapy on cell survival (tumour and non-tumour cells) was performed. MDA-MB-231 (5.10^3 cells/well), MCF-10A (5.10^3 cells/well) and U937 (2.10^4 cells/well) were seeded in 96 well-plates and incubated 24 hours at +37°C before addition of the drug at increasing concentrations for 4 to 7 days. Following drug exposure, cell survival was measured using the XTT assay (Sigma Aldrich). Briefly, the XTT solution was added directly to each well containing cell culture and the cells incubated for 4 to 24 hours at 37°C before reading the absorbance at 490 nm and 690 nm using a microplate reader (BMG Fluostar, Galaxy). Cell survival is calculated as the ratio of living treated cells to living mock-treated cells. […]\nIn a second step, analysis and quantification of the drug combination efficacy were performed. […] Belinostat + ATRi combinations was performed at a constant ratio (from IC50/8 to IC50*8) as previously described (Chou TC, Talalay P. Adv Enzyme Regul. 1984;22:27-55 (Quantitative analysis of dose-effect relationships: the combined effects of multiple drugs or enzyme inhibitors). Cell survival was measured using the XTT assay (see above).\nCombination efficacy is evaluated by \"the combination index (CI)\" which is determined using the CalcuSyn software tool based on the Chou Talalay method. […]\n(§2) In a second step, analysis and quantification of the drug combination efficacy were performed. […] Cell survival is measured using the XTT assay (see above).\n(§3) Combination efficacy is evaluated by \"the combination index (CI)\" which was determined using the CalcuSyn software tool based on the Chou Talalay method. […]"}, "[2]": {"system": "triple negative breast cancer (TBNC) cell line MDA-MB-231", "experiment": "XTT cell survival assay and CalcuSyn combination index, MDA-MB-231", "settings": "Homo sapiens, monotherapy, XTT assay, dose at which 50% of the cells are viable", "method": "as §1\nIn a first step, the characterization of the effect of drugs monotherapy on cell survival (tumour and non-tumour cells) was performed. MDA-MB-231 (5.10^3 cells/well), MCF-10A (5.10^3 cells/well) and U937 (2.10^4 cells/well) were seeded in 96 well-plates and incubated 24 hours at +37°C before addition of the drug at increasing concentrations for 4 to 7 days. Following drug exposure, cell survival was measured using the XTT assay (Sigma Aldrich). Briefly, the XTT solution was added directly to each well containing cell culture and the cells incubated for 4 to 24 hours at 37°C before reading the absorbance at 490 nm and 690 nm using a microplate reader (BMG Fluostar, Galaxy). Cell survival is calculated as the ratio of living treated cells to living mock-treated cells. The IC50 (which represents the dose at which 50% of the cells are viable) is calculated by a non-linear regression model using GraphPad Prism software (version 5.04) by plotting the percentage viability against the Log of the drug concentration on each cell line.\nIn a second step, analysis and quantification of the drug combination efficacy were performed. Cells were seeded in 96-well plates at the appropriate densities and treated with belinostat (PXD-101 - Spectrum) and/or ATR (ATRi - AZD6738, Selleckchem; VE-821, Selleckchem) simultaneously during 4 to 7days. Belinostat + ATRi combinations was performed at a constant ratio (from IC50/8 to IC50*8) as previously described (Chou TC, Talalay P. Adv Enzyme Regul. 1984;22:27-55 (Quantitative analysis of dose-effect relationships: the combined effects of multiple drugs or enzyme inhibitors). Cell survival was measured using the XTT assay (see above).\nCombination efficacy is evaluated by \"the combination index (CI)\" which is determined using the CalcuSyn software tool based on the Chou Talalay method. A CI could be interpreted as follows: CI<1, =1, and >1 indicate synergism; additive effect and antagonism, respectively (CalculSyn manual, Biosoft, 2006). Note that we define synergism as a more than expected additive effect, and antagonism as a less than expected additive effect. […]\nas §2, §3"}, "[3]": {"system": "non-tumor mammary cell line MCF-10A", "experiment": "XTT cell survival assay, non-tumor cells MCF-10A", "settings": "same drug doses as MDA-MB-231, 7 days; for sensitivity of non-tumor cells: XTT survival", "protocol": "Following drug exposure, cell survival was measured using the XTT assay (Sigma Aldrich). […] Following drug exposure, cell survival was measured using the XTT assay (Sigma Aldrich)."}}, "data": [{"smiles": "C[C@@H]1COCCN1c1cc(C2([S@](C)(=N)=O)CC2)nc(-c2cc[nH]c3nccc2-3)n1", "note": "[AZD6738, 4-[4-[1-[[S(R)]-S-methylsulfonimidoyl]cyclopropyl]-6-[(3R)-3-methyl-4-morpholinyl]-2-pyrimidinyl]-1H-pyrrolo[2,3-b]pyridine]", "values": [{"measurement": "IC50", "setting": "[1]", "result": 500, "unit": "nM"}, {"measurement": "IC50", "setting": "[2]", "result": 2500, "unit": "nM"}, {"measurement": "sensitivity of non-tumor cells on adding belinostat", "setting": "[3]; inhibitor plus belinostat", "result": "didn't increase"}, {"measurement": "sensitivity of non-tumor cells", "setting": "[3]", "result": "showed a sensitivity"}]}, {"smiles": "O=C(/C=C/c1cccc(S(=O)(=O)Nc2ccccc2)c1)NO", "note": "[Belinostat, (2E)-N-hydroxy-3-[3-(phenylsulfamoyl)phenyl]prop-2-enamide]", "values": [{"measurement": "IC50", "setting": "[1]", "result": 250, "unit": "nM"}, {"measurement": "IC50", "setting": "[2]", "result": 250, "unit": "nM"}, {"measurement": "sensitivity of non-tumor cells", "setting": "[3]", "result": "insensitive"}]}, {"smiles": "Cc1cnc(NC(=O)Nc2cc(Br)c(C)cc2OC[C@@H]2CNCCO2)cn1", "note": "[LY2603618, 1-[5-bromo-4-methyl-2-[[(2S)-morpholin-2-yl]methoxy]phenyl]-3-(5-methylpyrazin-2-yl)urea]", "values": [{"measurement": "IC50", "setting": "[1]", "result": 1100, "unit": "nM"}, {"measurement": "IC50", "setting": "[2]", "result": 3200, "unit": "nM"}, {"measurement": "sensitivity of non-tumor cells", "setting": "[3]", "result": "showed a sensitivity"}]}, {"smiles": "CS(=O)(=O)c1ccc(-c2cnc(N)c(C(=O)Nc3ccccc3)n2)cc1", "note": "[VE-821, 3-amino-6-(4-methylsulfonylphenyl)-N-phenylpyrazine-2-carboxamide]", "values": [{"measurement": "IC50", "setting": "[2]", "result": 18000, "unit": "nM"}]}]}
